According to patent publication US5614562A, “Method of treating drug resistant tumor cells using organoselenones” (The University of Sourthern California, priority 1992, dated 1997):
In brackets after ≈: the same amount, converted by molar mass.

How the values were obtained:
[1] = Swain-Scott product competition of nitrogen and oxygen nucleophiles vs NBP (second-order rate constant ratios); type: physicochemical; conditions: for log(kN/knbp): N3^- vs NBP, 37° C., 10 h, 52% aqueous acetone, mean ± S.D.
Description: (§1) The properties of nucleophilicity and electivity can be quantitatively expressed as n and s constants in the Swain-Scott linear free energy relationship. It has been shown that s and n constants of biological alkylating agents and nucleophiles, respectively, can be readily determined with high precision, using 4-(4-nitrobenzyl)pyridine (NBP) as a competitive substrate for alkyl product formation (Spears, C. P. Mol. Pharmacl.19:496-504,1981; Barbin,A.,Bereziat, A., O'Neill, I. K., and Bartsch, H. Chem.-Biol. Interact,73:261-277, 1990; Kang, S. I., and Spears,C. P. J. Med. Chem. 33:1544-1547, 1990). Broad-spectrum antitumor alkylating agents show uniformly high s constants Spears, C. P. Mol.Pharmacol. 19:496-504, 1981; in contrast, mutagenically efficient alkylating agents show low values (Peterson,A. R., Landolph, J. R., Peterson, H., Spears, C. P., and Heidelberger, C. Cancer Res. 41:3095-3099, 1981; Barbin, A., and Bartsch, H. Mut. Res.215:95-106, 1989).
(§2) FIG. 1 is a Swain-Scott plot of the ratio of second-order rate constants, log (ky /knbp) for several model sulfur, nitrogen, and oxygen nucleophiles in their reactions with 2-chloroethyl 4-methoxy-phenyl selenone ("CEMOS"), vs. their published nucleophilicity nCH3 Br constants. Values of n were taken to be 2.72 for acetate (AcO--), 3.3 for ascorbate, 3.6 for pyridine, 4.0 for azide (N3), 3.94 for nitrite, 5.1 for thiol (SH), 6.18 for sulfite (SO3^2-), 6.36 for thiosulfate (S2 O3^2-), and 6.6 for thiophosphate (HPSO3^2-) (derived from the Ogston "Competition Factor") (Ogston, A. G., Holiday, E. R., Philpot, J. S. L., and Stocken, L. A. Trans.Faraday Soc. 44:45-52, 1948).
The slope of the linear regression equation through the 5 nitrogen and oxygen nucleophiles gives a Swain-Scott selectivity constant, s, equal to 1.79, by Eq. A, shown in FIG. 1:
(§3) ^a By competition between S2 O3^2- and NBP log(kS
(§4) /knbp) or N3^- and NBP log(kN /knbp ) at
(§5) 37° C. and 10 h, in 52% aqueous acetone, using initial
(§6) concentrations of 0.0435 mM and 0.0217 mM of 2chloroethyl phenyl selenone
(§7) and nornitrogen mustard, respectively, as described. Values, experimental

[2] = Swain-Scott product competition of sulfur nucleophiles vs NBP (second-order rate constant ratios); type: physicochemical; conditions: for log(kS/knbp): S2O3^2- vs NBP, 37° C., 10 h, 52% aqueous acetone, mean ± S.D.
Description: as §1, §2
Extrapolation of Eq. A predicts that the log (ky /knbp) values for the thiol nucleophiles should have ranged from 3 to 5. However, the measured ratios of second-order rate constants were approximately 100-fold lower than this expectation. Also, the linear regression relationship, Eq. B (FIG. 1), for correlation of log (ky /knbp) values vs. nCH3 Br constants gave a sulfur nucleophile selectivity constant, s, equal to 0.84, approximately one-half of the value for reaction with nitrogen and oxygen nucleophiles:
as §3, §4, §5, §6, §7

[3] = type: physicochemical
[4] = test system: P388 murine leukemia ascites cells; assay: In vivo growth inhibition of P388 leukemia ascites in mice; set-up: species or system murine; BDF1 mice
Procedure: In FIG. 2 and Table II are shown the results of in vivo antitumor testing of 2-chloroethyl aryl selenones against murine P388 Leukemia ascites cells.
Examples 5-8 consisted of the use of 2-chloroethyl 4-methoxy-phenyl selenone to treat the mice. Examples 9-12 were the same as example 5 except 2-chloroethyl phenyl selenone was employed.
(§8) The maximally tolerated duration of the highest dose shown in FIG. 2 and Table II, 6 mg/kg/day i.p. of 2-chloroethyl phenyl selenone, was 10 days in a separate experiment. In the experiments shown, i.p. drug was administered for 5 consecutive days, Days 1-5, beginning the day after tumor inoculation (on Day 0).
Mice were inoculated i.p. with 1×10^6 cells of P388 murine leukemia ascites passaged in BDF1 mice, in a volume of 0.1 ml. The selenones were formulated in normal (0.9%, w/v) NaCl for an injection volume of 0.3 ml. Control mice (12 in each group) received i.p. saline alone comparative examples 1 and 2. For each dose level and drug, 6 mice per group were used.
The plateauing of weight increase, at Days 8-9, is consistent with classical Gompertizian tumor growth kinetics (Laird, A. K. Brit. J. Cancer 18:490-502, 1964). The delays observed in the time period before the onset of the exponential phase of weight increase are given in Table II, defined as the Growth Delay.
^a Calculated from Day at which weight first exceeded baseline (Day 0

L1210/0 = assay: Cytotoxicity, 48-hr exposure of L1210/0 leukemia cells; type: cell-based, murine; conditions: Mus musculus, L1210/0; 48-hr exposure; read-out: IC50 L1210/0
Description: (§9) Murine L1210 leukemia cells sensitive (L1210/0) and resistant (L1210/L-PAM)to L-phenylalanine mustard were obtained that are adaptable to either in vitro or in vivo passage.
(§10) Broad resistance of the L1210/L-PAM cell line is shown by the approximately 4-fold and 9-fold increases in IC50, compared to L1210/0, for L-PAM and mechlorethamine, respectively (Comparative Examples 3 and 4). […].

L1210/L-PAM = assay: Cytotoxicity, 48-hr exposure of L-PAM resistant L1210/L-PAM leukemia cells; type: cell-based, murine; conditions: 48-hr exposure; for IC50: Mus musculus, L1210/LPAM, read-out: IC50 L1210/L-PAM
Description: as §9, §10

HCT116 = assay: In vitro cytotoxicity, HCT116 human colon carcinoma; type: cell-based; conditions: Homo sapiens, HCT-116; data provided by Bristol-Myers Laboratories
Description: ^b Cell lines: HCT116 human colon (sensitive to VP16 and VM26)

HCT/VM46 = assay: In vitro cytotoxicity, VM26 resistant HCT/VM46 human colon carcinoma; type: cell-based; conditions: for IC50: Homo sapiens, VM26 resistant, data provided by Bristol-Myers Laboratories; for ratio of IC50 values HCT/VM46 vs HCT116: IC50 divided by IC50 for HCT116
Description: | HCT/VM46 human colon, VM26 resistant

HCT/VP35 = assay: In vitro cytotoxicity, VP16 resistant HCT/VP35 human colon carcinoma; type: cell-based; conditions: for IC50: Homo sapiens, HCT/VP35, VP16 resistant, data provided by Bristol-Myers Laboratories; for ratio of IC50 values HCT/VP35 vs HCT116: IC50 divided by IC50 for HCT116
Description: | HCT/VP35 human colon, VP16 resistant

[5] = literature value; cited from earlier work
[6] = Acute intraperitoneal toxicity / maximally tolerated dose in mice; type: in vivo; conditions: 6 mg/kg/day i.p., separate experiment
Procedure: as §8

[7] = test system: HT29 human colon carcinoma cells; assay: Growth inhibition cytotoxicity against HT29 human colon carcinoma cells (MER(+)); type: cell-based; conditions: HT-29
Description: (Example 15) These cells are very high in the alkyltransferase enzyme for repair of DNA guanine O6-alkyl products, and therefore are considered strongly MER(+) in phenotype. Levels of this enzyme in HT29 cells have averaged about 0.5 pmol/mg protein in recent studies (K. Chan, et al., unpublished). […] Thus, the lack of cross-resistance to ethyleneimines by the present invention of 2-chloroethyl aryl selenones is not associated with resistence mediated by the alkyltransferase repair enzyme.

[8] = test system: 7 different human colon carcinoma cell lines; conditions: read-out: average IC50, NCI in vitro screen; cited from earlier work
[9] = methanol, 35° C.; cited from earlier work
[10] = 1.0 mg/kg daily i.p., Days 1-5 (total 5 mg/kg), Ex. 6, Ex. 9
[11] = 2.0 mg/kg daily i.p., Days 1-5 (total 10 mg/kg), Ex. 7, Ex. 10
[12] = 4.0 mg/kg daily i.p., Days 1-5 (total 20 mg/kg), Ex. 8, Ex. 11

Q: Which “Swain-Scott selectivity constant, s (nitrogen and oxygen nucleophiles)” value ([1]; 5 nitrogen and oxygen nucleophiles, Eq. A, FIG. 1) does the source give for `COc1ccc([Se](=O)(=O)CCCl)cc1` [2-chloroethyl 4-methoxy-phenyl selenone] here?
A: Its value is 1.79.

Q: And the “susceptibility to aqueous hydrolysis” value ([1]; from intercept of Eq. A)?
A: The value was “extremely low susceptibility”.

Q: And the “log (ky/knbp) at n=3.6” value ([1]; n=3.6 (pyridine))?
A: The value was “nearly zero”.

Q: And the “intercept of Eq. A, log (ky/knbp) vs. nCH3Br” value ([1]; nitrogen and oxygen nucleophiles, Eq. A, listed as CEMOS)?
A: Its value is 6.40.

Q: And the “selectivity within the thiol series” value [2]?
A: The value was “abnormally low”.

Q: And the “measured ratios of second-order rate constants lower than expectation” value ([2]; sulfur nucleophiles vs. extrapolation of Eq. A)?
A: Its value is “approximately 100 fold”.

Q: What about the “sulfur nucleophile selectivity constant, s” value ([2]; sulfur nucleophiles, Eq. B, FIG. 1) of the same compound?
A: The value was 0.84.

Q: And the “alkylating activity in the FIG. 1 experiments” value ([3]; FIG. 1 experiments)?
A: Its value is 103%.

Q: And the Growth delay ([4]; 0.5 mg/kg daily i.p., Days 1-5 (total 2.5 mg/kg), Ex. 5)?
A: The Growth delay was 0 days.

Q: And the Growth delay [4, 10]?
A: Its Growth delay is 0 days.

Q: And the Growth delay [4, 11]?
A: The Growth delay was 3 days.

Q: What about the Growth delay [4, 12] of the same compound?
A: The Growth delay was 7 days.

Q: And the relative antitumor effectiveness ([4]; vs. parent 2-chloroethyl phenyl selenone)?
A: The relative antitumor effectiveness was “less effective than the parent 2-chloroethyl phenyl selenone”.

Q: What about the IC50 (L1210/0) of the same compound?
A: Its IC50 is 360 nM.

Q: And the “Ratio of IC50s (L1210/L-PAM vs L1210/0)” value (L1210/L-PAM)?
A: Its value is 0.9.

Q: And the IC50 (L1210/L-PAM)?
A: The IC50 was 360 nM.

Q: What about the IC50 (HCT116) of the same compound?
A: The IC50 was 1.01 µg/mL (≈ 3.59 µM).

Q: And the IC50 (HCT/VM46)?
A: The IC50 was 0.42 µg/mL (≈ 1.49 µM).

Q: And the “ratio of IC50 values HCT/VM46 vs HCT116” value (HCT/VM46)?
A: The value was 0.4.

Q: What about the IC50 (HCT/VP35) of the same compound?
A: The IC50 was 0.6 µg/mL (≈ 2.13 µM).

Q: What about the “ratio of IC50 values HCT/VP35 vs HCT116” value (HCT/VP35) of the same compound?
A: Its value is 0.6.

Q: And the “alkylating activity reported (Kang and Spears 1990)” value [5]?
A: Its value is 100%.

Q: For `O=[Se](=O)(CCCl)c1ccccc1` [2-chloroethyl phenyl selenone], which “log(kN/knbp)” value [1] is on record?
A: The value was 1.95 ± 0.11.

Q: What about the “log(kN/knbp)” value ([1]; listed as SKI-273) of the same compound?
A: The value was 1.95±0.11.

Q: What about the “log(kS/knbp)” value [2] of the same compound?
A: Its value is 1.77 ± 0.05.

Q: What about the “log(kS/knbp)” value ([2]; listed as SKI-273) of the same compound?
A: Its value is 1.77±0.05.

Q: What about the “AA (alkylating activity, absorption at 560 nm)” value ([3]; alkalinized alkyl-NBP, mean ± S.D.) of the same compound?
A: The value was 0.75 ± 0.004.

Q: And the “alkylating activity relative to mechlorethamine HCl” value ([3]; mechlorethamine HCl = 100%)?
A: The value was 140%.

Q: What about the “alkylating activity, percent of nor-nitrogen mustard” value ([3]; relative to nor-nitrogen mustard) of the same compound?
A: The value was 170%.

Q: What about the Growth delay [4, 10] of the same compound?
A: The Growth delay was 4 days.

Q: And the “inhibition of tumor growth by the lowest dose tested” value ([4]; 1 mg/kg/d i.p.)?
A: Its value is “inhibition of tumor growth”.

Q: And the Growth delay [4, 11]?
A: The Growth delay was 7 days.

Q: What about the Growth delay [4, 12] of the same compound?
A: The Growth delay was 8 days.

Q: What about the Growth delay ([4]; 6 mg/kg daily i.p., Days 1-5 (total 30 mg/kg), Ex. 12) of the same compound?
A: Its Growth delay is 11 days.

Q: And the maximally tolerated duration [6]?
A: The maximally tolerated duration was 10 days.

Q: What about the IC50 (L1210/0) of the same compound?
A: Its IC50 is 550 nM.

Q: And the “Ratio of IC50s (L1210/L-PAM vs L1210/0)” value (L1210/L-PAM)?
A: Its value is 0.9.

Q: And the IC50 (L1210/L-PAM)?
A: The IC50 was 510 nM.

Q: What about the IC50 [7] of the same compound?
A: Its IC50 is 2800 nM.

Q: What about the IC50 (HCT116) of the same compound?
A: The IC50 was 1.02 µg/mL (≈ 4.05 µM).

Q: And the IC50 (HCT/VM46)?
A: Its IC50 is 0.44 µg/mL (≈ 1.75 µM).

Q: And the “ratio of IC50 values HCT/VM46 vs HCT116” value (HCT/VM46)?
A: The value was 0.4.

Q: And the IC50 (HCT/VP35)?
A: Its IC50 is 0.82 µg/mL (≈ 3.26 µM).

Q: What about the “ratio of IC50 values HCT/VP35 vs HCT116” value (HCT/VP35) of the same compound?
A: The value was 0.8.

Q: What about the IC50 [8] of the same compound?
A: The IC50 was 2300 ± 1600 nM.

Q: Which “reactivity in methylation of dimethylsulfide” value [9] does the source give for `C[Se](=O)(=O)c1ccccc1` [PhSeO2 CH3] here?
A: The value was “three times as reactive as methyl iodide”.
